The test system of one data set is NIH3T3 HRAS/G12V tumors. The data set is described as follows: Mouse xenograft, NIH3T3 HRAS/G12V. The class given is in vivo. As to the method:
(§1) In vivo target (RET and VEGFR2) inhibition was studied by treating animals grafted with NIH3T3 RET/C634Y cells at different doses (0.3, 1, or 3 mg/kg/day p.o.) of NPA101.3 for 2 days and then performing Western blot analysis on protein extracts. […] Then, to determine antitumorigenic activity and to better distinguish RET- and VEGFR2-mediated effects, we tested NPA101.3 in nude mice transplanted with NIH3T3 cells transformed by either RET/C634Y or HRAS/G12V. Before tumors appeared, animals were treated daily with NPA101.3 (1.0, 3.0, or 10.0 mg/kg/day) or left untreated. […] Still, VEGFR2 inhibition was detected also in RAS-driven tumors, an effect that might explain the, albeit reduced, effect of the drug on their growth (Figure S13). Importantly, as predicted, no trace of NPA101.3 demethyl metabolites was detected after 1 or 4 h from oral dosing in mice (Figure S14).
Figure 6 Effects of NPA101.3 on in vivo tumor growth. NIH3T3 cells transformed by RET/C634Y or HRAS/G12V were inoculated subcutaneously into nu/nu mice. After 4 days, animals were randomly assigned to receive for the indicated time periods the compound (1.0, 3.0, or 10 mg/kg/day) (24 mice; 8 mice/group for 1, 3, and 10 mg/kg doses) or vehicle (8 mice) by oral gavage. The average size of tumors is reported ± SD.
NPA101.3 was dissolved in 80% H2O, 19.875% Tween 20, and 0.125% xanthan gum. The formulation was stored at room temperature and vortexed prior to administration. NIH3T3 RET/C634Y (200000) or NIH3T3 HRAS/G12V (50000) cells were inoculated subcutaneously into the dorsal portion (both sides) of 6-week-old female BALB/c nu/nu mice (32 mice/cell line) (Jackson Laboratories, Bar Harbor, ME). After 4 days, before tumors had appeared, animals were randomly assigned to receive NPA101.3 (1.0, 3.0, or 10 mg/kg/day) (8 mice/group) or vehicle control (8 mice) by oral gavage. Tumor diameters were measured with caliper every 2–3 days. Tumor volumes (V) were calculated by the rotational ellipsoid formula V = A × B^2/2 (A is the axial diameter, and B is the rotational diameter). […]

Data set [1] can be described thus: LCMS plasma analysis (in vivo metabolism study). The arrangement: species or system mouse. The conditions noted are these: 10 mg/kg oral, mice, 1 h and 4 h after dosing, LC-MS. As to the method:
as §1, with “S14). […]” for “S14).”
(§2) After thawing, cells were maintained in culture using minimum essential medium supplemented with 10% foetal bovine serum, 1% non-essential amino acids, 1% sodium pyruvate, 2mM L-glutamine, 1% pen-strep, 15μg/ml blasticidin and 100 μg/ml hygromycin. hERG channel expression induction was obtained by adding 10 μg/ml tetracycline 48 h before the experiment. […] Current amplitude was measured and […]
Supplementary Figure S14: In vivo metabolism study. […] NPA101.3 drug peak was detected at 3.61 min (m/z = 529) at either time point. […]

The nature of data set [2]: Toxicity, plasma biochemical analysis. The class given is in vivo, mouse. The conditions noted are these: 10 mg/kg/day oral, 7 days, mice. On the procedure:
as §1
Patch-Clamp assay. The patch-clamp assay has been outsourced to Aptuit (Verona, Italy). […]
as §2

These results are taken from PMC7901654, “Bioisosteric Discovery of NPA101.3, a Second-Generation RET/VEGFR2 Inhibitor Optimized for Single-Agent Polypharmacology” (Journal of Medicinal Chemistry, 2020).

SMILES strings stand for the structures. Entries after “also recorded” stand apart in the source; their conditions may differ.

On to `CC(C)(C)c1cc(NC(=O)Cc2ccc(-n3cnc4cc(-c5ccc(S(C)(=O)=O)cc5)ccc43)cc2)no1` [NPA101.3], for which, in the data set on NIH3T3 HRAS/G12V tumors (10 mg/kg/day oral, nu/nu mice), the “formation of tumors driven by HRAS/G12V” value was “weakened, but did not abrogate; also recorded: reduced, but did not abrogate”. Moreover, in the data set on NIH3T3 HRAS/G12V tumors (3 h after last dose), the “RAS signaling (MAPK phosphorylation) in NIH3T3 HRAS/G12V tumors” value is given as “virtually no effect” and the “VEGFR2 inhibition in RAS-driven tumors” value was “detected”. In addition, the “demethyl metabolites in plasma” value in data set [1] was “no trace”. For the same compound, the “standard blood markers of organ damage” value in data set [2] is given as “no significant change”.
